Broadly, the EC50 is the concentration that produces a half-maximal response.

This assay has as its target T1, human FPRL1 (Homo sapiens, UniProt P25090).
T1 construct: expressed in transfected cells; host or cells: HEK293 (JCRB9068, NIBIO), transient transfection with pCMV-script vectors using Lipofectamine 2000
T1 sequence (P25090 1-351): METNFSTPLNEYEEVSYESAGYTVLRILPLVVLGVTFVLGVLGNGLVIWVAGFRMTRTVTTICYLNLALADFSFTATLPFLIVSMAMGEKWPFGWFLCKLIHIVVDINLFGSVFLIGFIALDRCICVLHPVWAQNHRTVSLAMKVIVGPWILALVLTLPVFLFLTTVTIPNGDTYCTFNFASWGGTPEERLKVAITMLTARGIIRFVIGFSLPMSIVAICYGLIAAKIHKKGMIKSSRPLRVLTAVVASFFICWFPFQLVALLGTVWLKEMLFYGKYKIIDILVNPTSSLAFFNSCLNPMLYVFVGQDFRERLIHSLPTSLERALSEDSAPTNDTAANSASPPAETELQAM
The assay is described as follows: Measurement test of agonist activity on human FPRL1 (test of calcium mobilization in cell, HEK293 with human FPRL1 and Gα15 expression vectors). The assay is classed as cell-based. The settings on record: calcium mobilization in HEK293 cells with human FPRL1 and Gα15 expression vectors. Put shortly:
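HEK293 transiently co-transfected with human FPRL1 and Gα15, plated 24 h before assay, loaded with Fluo-4 NW dye plus probenecid. Compounds in eight 10-fold dilutions (DMSO stocks 10^−2 to 10^−9 M, then diluted 100-fold in assay buffer); calcium mobilization read on Flexstation for EC50.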
(Calcium assays in cells follow changes in intracellular calcium, usually with a dye or a luminescent sensor.)
On to `COc1cc(F)c([C@@H]2CN=C(Nc3ccccc3)[C@H]2NC(=O)Nc2ccc(F)cc2)c(F)c1` (relative stereo) [EXAMPLE 32-18, 1-[(3R*,4S*)-3-(2,6-difluoro-4-methoxyphenyl)-5-(phenylamino)-3,4-dihydro-2H-pyrrol-4-yl]-3-(4-fluorophenyl)urea], for which the EC50 came to 0.54 nM.

Take `COc1cc(F)c([C@@H]2CNC(=O)[C@H]2NC(=O)Nc2ccc(OC(F)(F)F)cc2)c(F)c1` (relative stereo) [Example 7-1, (−)-1-[(3S*,4R*)-4-(2,6-Difluoro-4-methoxyphenyl)-2-oxopyrrolidin-3-yl]-3-[4-(trifluoromethoxy)phenyl]urea]: the EC50 worked out at 1.09 nM.

Consider `COc1cc(F)c([C@@H]2CN/C(=N\OCCO)[C@H]2NC(=O)Nc2cc3ccccc3s2)c(F)c1` (single isomer, unassigned) [EXAMPLE 32-15, (−)-1-(benzo[b]thiophen-2-yl)-3-{(3S*,4R*,Z)-4-(2,6-difluoro-4-methoxyphenyl)-2-[(2-hydroxyethoxy)imino]pyrrolidin-3-yl}urea], for which the EC50 came out at 0.27 nM.

As to `COc1ccc(C2CNC(=O)C2NC(=O)Nc2ccc(F)cc2)cc1` (stereo not drawn) [Example 12-13, (+)-1-(4-fluorophenyl)-3-[4-(4-methoxyphenyl)-2-oxopyrrolidin-3-yl]urea], the concentration for a half-maximal effect (EC50) worked out at 1.12 nM.

For the compound `CO/N=C1\NC[C@@H](c2c(F)cc(OC)cc2F)[C@@H]1NC(=O)Nc1ccc(C#N)cc1` (single isomer, unassigned) [EXAMPLE 32-9, (−)-1-(4-cyanphenyl)-3-[(3S*,4R*,Z)-4-(2,6-difluoro-4-methoxyphenyl)-2-(methoxyimino)pyrrolidin-3-yl]urea], the EC50 was determined as 0.3 nM.

On to `CO/N=C1\NC[C@@H](c2ccc(OC)cc2F)[C@@H]1NC(=O)Nc1ccc(F)cc1` (single isomer, unassigned) [EXAMPLE 32-2, (−)-1-[(3S*,4R*,Z)-4-(2-fluoro-4-methoxyphenyl)-2-(methoxyimino)pyrrolidin-3-yl]-3-(4-fluorophenyl)urea], for which the EC50 was found to be 0.03 nM.

`CCOC(=O)CN1C[C@@H](c2cc3c(cc2F)OCC3)[C@H](NC(=O)Nc2ccc(F)cc2)C1=O` (single isomer, unassigned) [EXAMPLE 24-20, (−)-2-{(3S*,4R*)-4-(6-fluoro-2,3-dihydrobenzofuran-5-yl)-3-[3-(4-fluorophenyl)ureido]-2-oxopyrrolidin-1-yl}acetic acid ethyl ester]: the EC50 amounted to 0.15 nM.

In the case of `COc1ccc([C@@H]2CN(C(C)C(=O)O)C(=O)[C@H]2NC(=O)Nc2ccc(F)cc2)cc1` (single isomer, unassigned; isomer b) [Example 20-1, (−)-2-{(3S*,4R*)-3-[3-(4-Fluorophenyl)ureido]-4-(4-methoxyphenyl)-2-oxopyrrolidin-1-yl}propionic acid (isomer B)], the EC50 amounted to 0.47 nM.

In the case of `CCOC(=O)C(C)(C)N1C[C@@H](c2cc3c(cc2F)OCC3)[C@H](NC(=O)Nc2ccc(F)cc2)C1=O` (single isomer, unassigned) [EXAMPLE 24-21, (−)-2-{(3S*,4R*)-4-(6-fluoro-2,3-dihydrobenzofuran-5-yl)-3-[3-(4-fluorophenyl)ureido]-2-oxopyrrolidin-1-yl}-2-methylpropanoic acid ethyl ester], the EC50 was determined as 0.45 nM.

Take `COc1cc(F)c([C@@H]2CNC(=O)[C@H]2NC(=O)Nc2ccc(Oc3ccccc3)cc2)c(F)c1` (relative stereo) [Example 7-7, (−)-1-[(3S*,4R*)-4-(2,6-difluoro-4-methoxyphenyl)-2-oxopyrrolidin-3-yl]-3-(4-phenoxyphenyl)urea]: the EC50 stood at 1.56 nM.

For the compound `COc1cc(F)c([C@@H]2CNC(=O)[C@H]2NC(=O)Nc2ccc(C)s2)c(F)c1` (relative stereo) [Example 1-39, (−)-1-[(3S*,4R*)-4-(2,6-difluoro-4-methoxyphenyl)-2-oxopyrrolidin-3-yl]-3-(5-methylthiophen-2-yl)urea], the EC50 came out at 3.51 nM.

On to `COc1cc(F)c([C@@H]2CN(C)C(=O)[C@H]2NC(=O)Nc2ccc(Cl)nc2)c(F)c1` (relative stereo) [Example 24-4, (−)-1-(6-chloropyridin-3-yl)-3-[(3S*,4R*)-4-(2,6-difluoro-4-methoxyphenyl)-1-methyl-2-oxopyrrolidin-3-yl]urea], for which the EC50 was determined as 0.81 nM.

Consider `CO/N=C1\NC[C@@H](c2c(F)cc(OC)cc2F)[C@@H]1NC(=O)Nc1ccc(C)cc1` (single isomer, unassigned) [EXAMPLE 32-8, (−)-1-[(3S*,4R*,Z)-4-(2,6-difluoro-4-methoxyphenyl)-2-(methoxyimino)pyrrolidin-3-yl]-3-(p-tolyl)urea], for which the EC50 turned out to be 0.44 nM.

`COc1ccc([C@@H]2CNC(=O)[C@H]2NC(=O)Nc2ccc(F)cc2)c(Cl)c1` (relative stereo) [EXAMPLE 1-10, 1-[(3S*,4R*)-4-(2-chloro-4-methoxyphenyl)-2-oxopyrrolidin-3-yl]-3-(4-fluorophenyl)urea]: the EC50 was 3.98 nM.

With `COc1ccc([C@@H]2CN(C)C(=O)[C@H]2NC(=O)Nc2ccc(Cl)cc2)cc1` (single isomer, unassigned) [EXAMPLE 1-6, (−)-1-(4-chlorophenyl)-3-[(3S*,4R*)-4-(4-methoxyphenyl)-1-methyl-2-oxopyrrolidin-3-yl]urea], the concentration for a half-maximal effect (EC50) stood at 0.2 nM.

Turning to `COc1cc(F)c([C@@H]2CN(Cc3cccnc3)C(=O)[C@H]2NC(=O)Nc2ccc(F)cc2)c(F)c1` (relative stereo) [Example 24-13, (−)-1-[(3S*,4R*)-4-(2,6-difluoro-4-methoxyphenyl)-2-oxo-1-(pyridin-3-ylmethyl)pyrrolidin-3-yl]-3-(4-fluorophenyl)urea], the EC50 is 0.11 nM.

With `NC(=O)CN1C[C@@H](c2cc3c(cc2F)OCC3)[C@H](NC(=O)Nc2ccc(F)cc2)C1=O` (relative stereo) [Example 17-3, (−)-2-{(3S*,4R*)-4-(6-fluoro-2,3-dihydrobenzofuran-5-yl)-3-[3-(4-fluorophenyl)ureido]-2-oxopyrrolidin-1-yl}acetamide], the EC50 amounted to 0.29 nM.

For the compound `COc1ccc([C@@H]2CN(CCO)C(=O)C2NC(=O)Nc2ccc(Cl)cc2)cc1` (mixture of isomers) [Example 14-1, (±)-trans-1-(4-Chlorophenyl)-3-[1-(2-hydroxyethyl)-4-(4-methoxyphenyl)-2-oxopyrrolidin-3-yl]urea], the EC50 was determined as 0.32 nM.

With `COc1cc(F)c([C@@H]2CN(C)C(=O)[C@H]2NC(=O)Nc2ccc(F)cc2)c(F)c1` (relative stereo) [Example 24-1, (−)-1-[(3S*,4R*)-4-(2,6-Difluoro-4-methoxyphenyl)-1-methyl-2-oxopyrrolidin-3-yl]-3-(4-fluorophenyl)urea], the EC50 amounted to 0.09 nM.

As to `COc1ccc([C@H]2CN(OC)C(=O)[C@@H]2NC(=O)Nc2ccc(F)cc2)cc1` (single isomer, unassigned) [EXAMPLE 27-1, (+)-1-(4-Fluorophenyl)-3-[(3R*,4S*)-1-methoxy-4-(4-methoxyphenyl)-2-oxopyrrolidin-3-yl]urea], the EC50 came out at 3.14 nM.

As for `COc1cc(F)c([C@@H]2CN=C(Nc3ccn(C)n3)[C@H]2NC(=O)Nc2ccc(F)cc2)c(F)c1` (single isomer, unassigned) [EXAMPLE 32-16, (−)-1-{(3R*,4S*)-3-(2,6-difluoro-4-methoxyphenyl)-5-[(1-methyl-1H-pyrazol-3-yl)amino]-3,4-dihydro-2H-pyrrol-4-yl}-3-(4-fluorophenyl)urea], the EC50 came to 0.54 nM.

On to `COc1ccc([C@H]2[C@H](NC(=O)Nc3ccc(F)cc3)C(=O)N[C@@H]2C)cc1` (relative stereo) [Example 1-41, (−)-1-(4-fluorophenyl)-3-[(3S*,4R*,5R*)-4-(4-methoxyphenyl)-5-methyl-2-oxopyrrolidin-3-yl]urea], for which the EC50 amounted to 0.73 nM.

`CCOC(=O)CN1C[C@@H](c2c(F)cc(OC)cc2F)[C@H](NC(=O)Nc2ccc(F)cc2)C1=O` (single isomer, unassigned) [EXAMPLE 24-16, (−)-2-{(3S*,4R*)-4-(2,6-difluoro-4-methoxyphenyl)-3-[3-(4-fluorophenyl)ureido]-2-oxopyrrolidin-1-yl}acetic acid ethyl ester]: the concentration for a half-maximal effect (EC50) is 0.15 nM.

For the compound `O=C(Nc1ccc(F)cc1)N[C@@H]1C(=O)NC[C@H]1c1c(F)cc(OC(F)F)cc1F` (relative stereo) [Example 1-74, 1-{(3S*,4R*)-4-[4-(difluoromethoxy)-2,6-difluorophenyl]-2-oxopyrrolidin-3-yl}-3-(4-fluorophenyl)urea], the EC50 is 1.8 nM.

`O=C(Nc1ccc(F)cc1)N[C@@H]1C(=O)N(CC2CC2)C[C@H]1c1cc2c(cc1F)OCC2` (single isomer, unassigned) [EXAMPLE 24-22, (−)-1-[(3S*,4R*)-1-(cyclopropylmethyl)-4-(6-fluoro-2,3-dihydrobenzofuran-5-yl)-2-oxopyrrolidin-3-yl]-3-(4-fluorophenyl)urea]: the EC50 turned out to be 1.32 nM.

For `COc1cc(F)c([C@@H]2CN(Cc3nnc(C)o3)C(=O)[C@H]2NC(=O)Nc2ccc(F)cc2)c(F)c1` (single isomer, unassigned) [EXAMPLE 24-18, (−)-1-{(3S*,4R*)-4-(2,6-difluoro-4-methoxyphenyl)-1-[(5-methyl-1,3,4-oxadiazol-2-yl)methyl]-2-oxopyrrolidin-3-yl}-3-(4-fluorophenyl)urea], the EC50 was 0.03 nM.

Values taken from patent US9822069B2, “Urea derivative or pharmacologically acceptable salt thereof” (KYORIN PHARMACEUTICAL CO. LTD., priority 2013, dated 2017).
